Numbered stars: 1 amine (or outer) side, 2 acyl side, 3 side chain; on linkers, the order of the positions; unused ones are H or OH. Bridge positions count the residues as written; N and C are the ends. Square brackets hold non-standard residues; d marks the D form. Peptide text beside a SMILES is read from it. * marks the point of attachment. Tartaroyl(2R,3R-(OAc)2) = CC(=O)O[C@@H](C(=O)[*:1])[C@@H](OC(C)=O)C(=O)[*:2]; Phe(3-CF3) = N[C@@H](Cc1cccc(C(F)(F)F)c1)C(=O)O; Phe(4-CF3) = N[C@@H](Cc1ccc(C(F)(F)F)cc1)C(=O)O; Phe(2,4-Cl2) = N[C@@H](Cc1ccc(Cl)cc1Cl)C(=O)O; Bip = N[C@@H](Cc1ccc(-c2ccccc2)cc1)C(=O)O; dPhe(4-NH2) = Nc1ccc(C[C@@H](N)C(=O)O)cc1; Phe(4-Br) = N[C@@H](Cc1ccc(Br)cc1)C(=O)O; dPhe(2-CN) = N#Cc1ccccc1C[C@@H](N)C(=O)O; Phe(4-NH2) = Nc1ccc(C[C@H](N)C(=O)O)cc1; Ala(2-furyl) = N[C@@H](Cc1ccco1)C(=O)O; dPhe(2-Cl) = N[C@H](Cc1ccccc1Cl)C(=O)O; Lys(Me2) = CN(C)CCCC[C@H](N)C(=O)O; d(hPhe) = N[C@H](CCc1ccccc1)C(=O)O; d2Thi = N[C@H](Cc1cccs1)C(=O)O; Suc = O=C(CCC(=O)[*:2])[*:1]; NHCH2CH2OH = OCCN*

T1 sequence (P01375 77-233 limits assumed, species assumed): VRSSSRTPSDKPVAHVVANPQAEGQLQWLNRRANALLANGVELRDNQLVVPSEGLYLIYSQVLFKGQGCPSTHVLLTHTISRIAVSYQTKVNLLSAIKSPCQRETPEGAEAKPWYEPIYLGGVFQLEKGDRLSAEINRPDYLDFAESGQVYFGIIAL

This test has as its target T1, TNFα / TNFα receptor (TNFα R1/Fc) (Homo sapiens, UniProt P01375).
T1 construct: purchased R&D Systems
The experiment in a line: Inhibition of binding of TNFα to the TNFα receptor (plate ELISA competition). The note with it: Table 2; read-out: Activity (IC50, inhibition of TNFα binding to TNFα R1/Fc). The procedure, abridged:
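Plates were coated with TNFα at 15 nM. Test compound and 8.33 nM receptor-Fc (PBST, 2% DMSO) were first mixed in solution for 30 min at room temperature, then transferred to the plates for another 30 min. Competition was read by absorbance at 450 nm after HRP anti-human IgG Fc detection with TMB.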
Turning to `O=C1CCC(=O)N[C@H](Cc2cccs2)C(=O)N[C@@H](Cc2ccc(-c3ccccc3)cc2)C(=O)N[C@H](Cc2ccccc2)C(=O)N[C@H](C(=O)N2CCC[C@@H]2C(=O)O)Cc2ccc(cc2)N1` [Compound 200] ([d2Thi][Bip][dF][Phe(4-NH2)][dP]-OH; linker N-4 via Suc), the IC50 was 30 to 100 µM.

On to `CN(C)CCCC[C@@H]1NC(=O)[C@@H](Cc2cccs2)NC(=O)CCC(=O)Nc2ccc(cc2)C[C@@H](C(=O)O)NC(=O)[C@@H](Cc2ccccc2)NC1=O` [Compound 203] ([d2Thi][Lys(Me2)][dF][Phe(4-NH2)]-OH; linker N-4 via Suc), for which the IC50 was over 100 µM.

Consider `O=C1CCC(=O)N[C@H](Cc2cccs2)C(=O)N[C@@H](Cc2ccc(-c3ccccc3)cc2)C(=O)N[C@H](Cc2ccccc2)C(=O)N[C@H](C(=O)NCCO)Cc2ccc(cc2)N1` [Compound 205] ([d2Thi][Bip][dF][Phe(4-NH2)]-NHCH2CH2OH; linker N-4 via Suc), for which the IC50 is over 100 µM.

Regarding `COC(=O)[C@@H]1Cc2ccc(cc2)NC(=O)CCC(=O)N[C@H](CC(=O)O)C(=O)N[C@@H](Cc2ccc(C(F)(F)F)cc2)C(=O)N[C@H](Cc2ccccc2)C(=O)N1` [Compound 206] ([dD][Phe(4-CF3)][dF][Phe(4-NH2)]-OMe; linker N-4 via Suc), the IC50 was over 100 µM.

In the case of `O=C1CCC(=O)N[C@H](Cc2cccs2)C(=O)N[C@@H](Cc2cccc(C(F)(F)F)c2)C(=O)N[C@H](Cc2ccccc2)C(=O)N[C@H](C(=O)O)Cc2ccc(cc2)N1` [Compound 208] ([d2Thi][Phe(3-CF3)][dF][Phe(4-NH2)]-OH; linker N-4 via Suc), the IC50 was over 100 µM.

Consider `O=C1COc2ccc(cc2)C[C@@H](C(=O)O)NC(=O)[C@@H](Cc2ccccc2)NC(=O)[C@@H](Cc2ccc(-c3ccccc3)cc2)NC(=O)[C@@H](Cc2cccs2)N1` [Compound 209], for which the IC50 was over 100 µM.

As to `O=C1COc2ccc(cc2)C[C@@H](C(=O)O)NC(=O)[C@@H](Cc2ccccc2)NC(=O)[C@@H](Cc2ccc(-c3ccccc3)cc2)NC(=O)[C@H](Cc2cccs2)N1` [Compound 210], the IC50 was over 100 µM.

Regarding `O=C1COc2ccc(cc2)C[C@@H](C(=O)O)NC(=O)[C@H](Cc2ccccc2)NC(=O)[C@@H](Cc2ccc(-c3ccccc3)cc2)NC(=O)[C@@H](Cc2cccs2)N1` [Compound 211], the IC50 was in the range of 30 to 100 µM.

Take `O=C1COc2ccc(cc2)C[C@@H](C(=O)O)NC(=O)[C@H](Cc2ccccc2)NC(=O)[C@H](Cc2ccc(-c3ccccc3)cc2)NC(=O)[C@@H](Cc2cccs2)N1` [Compound 213]: the IC50 was over 100 µM.

In the case of `O=C1COc2ccc(cc2)C[C@@H](C(=O)O)NC(=O)[C@H](Cc2ccccc2)NC(=O)[C@@H](Cc2ccc(-c3ccccc3)cc2)NC(=O)[C@H](Cc2cccs2)N1` [Compound 214], the IC50 is under 10 µM.

Consider `O=C1COc2ccc(cc2)C[C@@H](C(=O)O)NC(=O)[C@@H](Cc2ccccc2)NC(=O)[C@H](Cc2ccc(-c3ccccc3)cc2)NC(=O)[C@H](Cc2cccs2)N1` [Compound 215], for which the IC50 lay within 30 to 100 µM.

As for `O=C1COc2ccc(cc2)C[C@@H](C(=O)O)NC(=O)[C@@H](Cc2ccccc2)NC(=O)[C@H](Cc2ccc(C(F)(F)F)cc2)NC(=O)[C@@H](CCc2ccccc2)N1` [Compound 216], the IC50 was over 100 µM.

As for `CC(=O)O[C@H]1C(=O)Nc2ccc(cc2)C[C@H](C(=O)O)NC(=O)[C@@H](CCc2ccccc2)NC(=O)[C@H](Cc2ccc(Br)cc2)NC(=O)[C@@H](Cc2ccccc2)NC(=O)[C@@H]1OC(C)=O` [Compound 218] ([dF][Phe(4-Br)][d(hPhe)][dPhe(4-NH2)]-OH; linker N-4 via Tartaroyl(2R,3R-(OAc)2)), the IC50 is 10 to 30 µM.

Consider `CC(=O)O[C@H]1C(=O)Nc2ccc(cc2)C[C@H](C(=O)O)NC(=O)[C@@H](CCc2ccccc2)NC(=O)[C@H](Cc2ccc(Br)cc2)NC(=O)[C@@H](Cc2cccs2)NC(=O)[C@@H]1OC(C)=O` [Compound 219] ([d2Thi][Phe(4-Br)][d(hPhe)][dPhe(4-NH2)]-OH; linker N-4 via Tartaroyl(2R,3R-(OAc)2)), for which the IC50 was under 10 µM.

Take `CC(=O)O[C@H]1C(=O)Nc2ccc(cc2)C[C@H](C(=O)O)NC(=O)[C@@H](CCc2ccccc2)NC(=O)[C@H](Cc2ccc(Cl)cc2Cl)NC(=O)[C@@H](Cc2ccccc2)NC(=O)[C@@H]1OC(C)=O` [Compound 220] ([dF][Phe(2,4-Cl2)][d(hPhe)][dPhe(4-NH2)]-OH; linker N-4 via Tartaroyl(2R,3R-(OAc)2)): the IC50 was in the range of 10 to 30 µM.

In the case of `CC(=O)O[C@H]1C(=O)Nc2ccc(cc2)C[C@H](C(=O)O)NC(=O)[C@@H](CCc2ccccc2)NC(=O)[C@H](Cc2ccc(Cl)cc2Cl)NC(=O)[C@@H](Cc2cccs2)NC(=O)[C@@H]1OC(C)=O` [Compound 221] ([d2Thi][Phe(2,4-Cl2)][d(hPhe)][dPhe(4-NH2)]-OH; linker N-4 via Tartaroyl(2R,3R-(OAc)2)), the IC50 lay in the range of 30 to 100 µM.

As for `CC(=O)O[C@H]1C(=O)Nc2ccc(cc2)C[C@H](C(=O)O)NC(=O)[C@@H](Cc2ccccc2)NC(=O)[C@H](Cc2ccc(-c3ccccc3)cc2)NC(=O)[C@@H](Cc2ccccc2)NC(=O)[C@@H]1OC(C)=O` [Compound 222] ([dF][Bip][dF][dPhe(4-NH2)]-OH; linker N-4 via Tartaroyl(2R,3R-(OAc)2)), the IC50 was over 100 µM.

In the case of `CC(=O)O[C@H]1C(=O)Nc2ccc(cc2)C[C@@H](C(=O)O)NC(=O)[C@@H](Cc2ccccc2)NC(=O)[C@H](Cc2ccc(-c3ccccc3)cc2)NC(=O)[C@@H](Cc2cccs2)NC(=O)[C@@H]1OC(C)=O` [Compound 223] ([d2Thi][Bip][dF][Phe(4-NH2)]-OH; linker N-4 via Tartaroyl(2R,3R-(OAc)2)), the IC50 was in the range of 30 to 100 µM.

Turning to `O=C1CCC(=O)N[C@H](CCc2ccccc2)C(=O)N[C@@H](Cc2ccc(C(F)(F)F)cc2)C(=O)N[C@@H](Cc2ccco2)C(=O)N[C@H](C(=O)O)Cc2ccc(cc2)N1` [Compound 224] ([d(hPhe)][Phe(4-CF3)][Ala(2-furyl)][Phe(4-NH2)]-OH; linker N-4 via Suc), the IC50 was over 100 µM.

Consider `N#Cc1ccccc1C[C@H]1NC(=O)[C@H](Cc2ccc(C(F)(F)F)cc2)NC(=O)[C@@H](CCc2ccccc2)NC(=O)CCC(=O)Nc2ccc(cc2)C[C@@H](C(=O)O)NC1=O` [Compound 225] ([d(hPhe)][Phe(4-CF3)][dPhe(2-CN)][Phe(4-NH2)]-OH; linker N-4 via Suc), for which the IC50 was over 100 µM.

With `O=C1CCC(=O)N[C@H](CCc2ccccc2)C(=O)N[C@@H](Cc2ccc(C(F)(F)F)cc2)C(=O)N[C@H](Cc2ccccc2Cl)C(=O)N[C@H](C(=O)O)Cc2ccc(cc2)N1` [Compound 226] ([d(hPhe)][Phe(4-CF3)][dPhe(2-Cl)][Phe(4-NH2)]-OH; linker N-4 via Suc), the IC50 is 10 to 30 µM.

Consider `O=C1COc2ccc(cc2)C[C@@H](C(=O)N[C@H](Cc2ccccc2)C(=O)O)NC(=O)[C@H](Cc2ccccc2)NC(=O)[C@@H](Cc2ccc(-c3ccccc3)cc2)NC(=O)[C@H](Cc2cccs2)N1` [Compound 227], for which the IC50 is under 10 µM.

Take `O=C1COc2ccc(cc2)C[C@@H](C(=O)N[C@H](Cc2ccccc2)C(=O)O)NC(=O)[C@H](Cc2ccccc2)NC(=O)[C@H](Cc2ccc(-c3ccccc3)cc2)NC(=O)[C@H](Cc2cccs2)N1` [Compound 228]: the IC50 is under 10 µM.

Turning to `O=C1COc2ccc(cc2)C[C@@H](C(=O)N[C@@H](Cc2ccccc2)C(=O)O)NC(=O)[C@H](Cc2ccccc2)NC(=O)[C@H](Cc2ccc(-c3ccccc3)cc2)NC(=O)[C@H](Cc2cccs2)N1` [Compound 229], the IC50 was under 10 µM.

Values taken from patent US8338565B2, “Macrocyclic compounds for inhibition of tumor necrosis factor alpha” (Ensemble Therapeutics Corporation, priority 2008, dated 2012).
